Laboratory results: US9951051B2, “Process for producing alkynylketone derivative” (Shionogi & Co., Ltd., priority 2014, dated 2018)
Where a name gives a salt, the structure may show the parent alone.

Assay: Solubility test of methanesulfonate of Compound represented by Formula (II″)
Format: physicochemical
Details: HPLC method A; for concentration in supernatant solution (solubility): 20 to 25 °C, slurry stirred over two hours; for concentration of crystalline form dissolved into the solution: Conditions in Example 2 (DMSO/NMM/THF/MeCN), 0 °C
Experimental: Crystalline form of methanesulfonate of Compound represented by Formula (II″) and crystalline form of free form of Compound represented by Formula (II″) were suspended in tetrahydrofuran or acetonitrile, respectively. The slurries were stirred at 20° C. to 25° C. for over two hours, and then the concentration in each supernatant solution was measured (HPLC method A). The HPLC results of the concentration in each supernatant solution are indicated as Table 12.
Moreover, the concentration of each crystalline form being dissolved into the solution at 0° C. in Step 1 (Step to obtain the crystalline form of methanesulfonate) and Step 2 (Step to obtain the crystalline form of free form) in Example 2 was measured by HPLC method A and compared (Table 12).

With `CC#CC(=O)c1ccc2ncnc(Nc3ccc(OCc4cccc(F)c4)c(Cl)c3)c2c1` [Free form of Formula (II″), 4-(3-chloro-4-(3-fluorobenzyloxy)phenylamino)-6-(1-oxo-2-butyn-1-yl)quinazoline] the “concentration in supernatant solution (solubility)” value (“concentration … (solubility)” for short) (Acetonitrile) was 0.3%, the “concentration of crystalline form dissolved into the solution” value was 15.7% and the “concentration of crystalline form dissolved into the solution” value (listed as free form of Compound represented by (II″)) was 15.7%. For the same molecule, the “concentration … (solubility)” value (Tetrahydrofuran) was 3.6%.
In the case of `CC#CC(=O)c1ccc2ncnc(Nc3ccc(OCc4cccc(F)c4)c(Cl)c3)c2c1` [MsOH salt of Formula (II″)], the “concentration … (solubility)” value (Acetonitrile) is reported as 0.05%, the “concentration of crystalline form dissolved into the solution” value is reported as 3.1% and the “concentration of crystalline form dissolved into the solution” value (listed as methanesulfonate of Compound represented by (II″)) is reported as 3.1%. For the same molecule, the “concentration … (solubility)” value (Tetrahydrofuran) was 0.05%.
